Source: US20240182531A1, “KV1.3 Blockers” (priority 2021, published 2024)
Where a SMILES comes first, the peptide text is derived from it. Bridges are numbered along the chain shown (N, C = ends). [ ]: non-standard residue; d: D form. Nle = CCCC[C@H](N)C(=O)O

Legend:
human Kv1.2 = target: T1, human Kv1.2 (Homo sapiens, UniProt P16389); assay: cell-based; conditions: ratio of patch clamp IC50 values
T1 construct: expressed in transfected cells; host or cells: CHO

human Kv1.1 = target: T2, human Kv1.1 (Homo sapiens, UniProt Q09470); assay: cell-based; conditions: ratio of patch clamp IC50 values
T2 construct: expressed in transfected cells; host or cells: CHO
T2 sequence (Q09470 whole entry): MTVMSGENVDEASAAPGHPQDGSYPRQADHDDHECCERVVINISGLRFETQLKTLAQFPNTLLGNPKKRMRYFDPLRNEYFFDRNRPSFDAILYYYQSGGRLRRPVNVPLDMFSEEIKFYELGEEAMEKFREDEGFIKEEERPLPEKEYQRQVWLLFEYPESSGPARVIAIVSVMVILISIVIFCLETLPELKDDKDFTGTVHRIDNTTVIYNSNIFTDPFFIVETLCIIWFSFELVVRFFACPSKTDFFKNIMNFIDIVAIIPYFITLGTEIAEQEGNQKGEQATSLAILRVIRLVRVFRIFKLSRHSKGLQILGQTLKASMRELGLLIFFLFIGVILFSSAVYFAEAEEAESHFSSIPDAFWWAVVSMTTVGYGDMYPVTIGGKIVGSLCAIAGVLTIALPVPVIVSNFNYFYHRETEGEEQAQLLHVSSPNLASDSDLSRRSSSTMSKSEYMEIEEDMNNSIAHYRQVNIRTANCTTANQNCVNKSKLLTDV

human Kv1.6 = target: T3, human Kv1.6 (Homo sapiens, UniProt P17658); assay: cell-based; conditions: ratio of patch clamp IC50 values
T3 construct: expressed in transfected cells; host or cells: CHO
T3 sequence (P17658 whole entry): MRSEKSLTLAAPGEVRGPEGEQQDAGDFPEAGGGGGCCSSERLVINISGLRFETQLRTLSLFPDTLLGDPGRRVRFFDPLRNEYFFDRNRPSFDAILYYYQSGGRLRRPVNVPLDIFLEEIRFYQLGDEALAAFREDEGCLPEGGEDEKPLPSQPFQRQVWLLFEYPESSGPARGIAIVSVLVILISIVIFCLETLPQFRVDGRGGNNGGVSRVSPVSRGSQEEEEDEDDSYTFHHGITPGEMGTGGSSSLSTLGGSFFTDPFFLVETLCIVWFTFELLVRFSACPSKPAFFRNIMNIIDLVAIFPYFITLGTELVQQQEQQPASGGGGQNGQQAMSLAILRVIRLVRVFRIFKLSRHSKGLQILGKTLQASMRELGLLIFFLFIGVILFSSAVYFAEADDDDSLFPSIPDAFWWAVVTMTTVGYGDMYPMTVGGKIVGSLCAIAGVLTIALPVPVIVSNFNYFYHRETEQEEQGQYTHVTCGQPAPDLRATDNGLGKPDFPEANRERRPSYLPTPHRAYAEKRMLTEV

Rat whole blood = Rat whole blood (Rattus norvegicus, UniProt P15384); assay type: cell-based; conditions: IL-17A release, thapsigargin, 24 Hr, at least 2 replicates
Rat whole blood, sequence (P15384 whole entry): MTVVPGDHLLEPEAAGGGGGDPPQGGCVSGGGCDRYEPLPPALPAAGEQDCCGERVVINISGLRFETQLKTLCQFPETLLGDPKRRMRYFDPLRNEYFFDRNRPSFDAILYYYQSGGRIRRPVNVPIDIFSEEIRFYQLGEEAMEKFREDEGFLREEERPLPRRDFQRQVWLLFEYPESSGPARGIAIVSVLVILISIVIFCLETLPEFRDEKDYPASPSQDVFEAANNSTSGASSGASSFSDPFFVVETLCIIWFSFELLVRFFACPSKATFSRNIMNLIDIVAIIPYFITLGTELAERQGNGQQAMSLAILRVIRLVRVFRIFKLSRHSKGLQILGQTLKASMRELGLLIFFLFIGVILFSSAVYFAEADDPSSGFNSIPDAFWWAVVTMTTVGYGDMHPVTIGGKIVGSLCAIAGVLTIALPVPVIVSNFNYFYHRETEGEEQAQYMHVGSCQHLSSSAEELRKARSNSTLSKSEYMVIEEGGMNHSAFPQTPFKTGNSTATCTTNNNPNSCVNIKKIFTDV

T1 sequence (P16389 whole entry): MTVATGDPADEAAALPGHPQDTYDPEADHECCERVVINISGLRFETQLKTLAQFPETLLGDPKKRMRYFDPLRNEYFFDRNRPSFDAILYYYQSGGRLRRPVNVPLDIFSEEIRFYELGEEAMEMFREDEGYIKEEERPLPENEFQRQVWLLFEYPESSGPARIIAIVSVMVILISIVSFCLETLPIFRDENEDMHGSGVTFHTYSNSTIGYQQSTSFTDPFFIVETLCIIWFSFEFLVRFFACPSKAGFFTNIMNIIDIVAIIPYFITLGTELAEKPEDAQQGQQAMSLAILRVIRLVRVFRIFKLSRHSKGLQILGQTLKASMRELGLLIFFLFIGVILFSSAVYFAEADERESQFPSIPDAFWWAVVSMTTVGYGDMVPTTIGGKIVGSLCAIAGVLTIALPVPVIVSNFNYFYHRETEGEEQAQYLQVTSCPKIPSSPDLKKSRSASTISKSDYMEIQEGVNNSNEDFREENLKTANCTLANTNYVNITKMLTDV

Row | Molecule | Selectivity ratio Kv1.2/Kv1.3 (human Kv1.2) | Selectivity ratio Kv1.1/Kv1.3 (human Kv1.1) | Selectivity ratio Kv1.6/Kv1.3 (human Kv1.6) | IC50 (Rat whole blood) [nM]
1 | CC[C@H](C)[C@@H]1NC(=O)[C@H](CCCNC(=N)N)NC(=O)[C@H](CCCCN)NC(=O)[C@H](CC(C)C)NC(=O)[C@@H]2CSSC[C@@H](C(=O)N[C@@H](Cc3ccc(O)cc3)C(=O)N3CCC[C@H]3C(=O)N[C@@H](CCCNC(=N)N)C(N)=O)NC(=O)[C@H](CCCCN)NC(=O)[C@@H]3CSSC[C@H](NC(=O)[C@H](CCC(=O)O)NC(=O)[C@H](C(C)C)NC(=O)[C@H](CO)NC(=O)[C@H](C)NC(=O)[C@H](CO)NC(=O)[C@@H](NC(=O)[C@H](CCCNC(=N)N)NC(=O)[C@H](CCSC)NC(=O)[C@H](CC(=O)O)NC(=O)[C@H](CCSC)NC(=O)[C@@H](N)CC(N)=O)CSSC[C@H](NC(=O)[C@H](CCCCN)NC(=O)CNC(=O)[C@H](Cc4ccccc4)NC(=O)[C@H]([C@@H](C)CC)NC(=O)[C@H](CO)NC(=O)CNC1=O)C(=O)N[C@@H](CCSC)C(=O)N[C@@H](CC(N)=O)C(=O)N[C@@H](CCCCN)C(=O)N[C@@H](CCCCN)C(=O)N3)C(=O)N[C@@H](CCCCN)C(=O)N[C@@H](CCC(N)=O)C(=O)N[C@@H](CCCCN)C(=O)N2 [compound 60] (H-NMDMRCSASVECKQKCLKRIGSIFGKCMNKKCKCYPR-NH2; disulfide 6-27, 12-32, 16-34) | 187 | >9900 | 3062 | 
2 | CCCC[C@@H]1NC(=O)[C@@H]2CSSC[C@H](NC(=O)[C@H](CCCNC(=N)N)NC(=O)[C@H](CCCC)NC(=O)[C@H](CC(=O)O)NC(=O)[C@H](CCCC)NC(=O)[C@@H](N)CC(N)=O)C(=O)N[C@@H](CO)C(=O)N[C@@H](C)C(=O)N[C@@H](CO)C(=O)N[C@@H](C(C)C)C(=O)N[C@@H](CCC(=O)O)C(=O)N[C@H]3CSSC[C@H](NC(=O)[C@H](CCCCN)NC(=O)[C@H](CCCCN)NC(=O)[C@H](CC(N)=O)NC1=O)C(=O)N[C@@H](CCCCN)C(=O)N[C@H](C(=O)N[C@@H](Cc1ccc(O)cc1)C(=O)N1CCC[C@H]1C(=O)N[C@@H](CCCNC(=N)N)C(N)=O)CSSC[C@H](NC(=O)[C@H](CCCCN)NC(=O)[C@H](CCC(N)=O)NC(=O)[C@H](CCCCN)NC3=O)C(=O)N[C@@H](CC(C)C)C(=O)N[C@@H](CCCCN)C(=O)N[C@@H](C)C(=O)N[C@@H]([C@@H](C)CC)C(=O)NCC(=O)N[C@@H](CO)C(=O)N[C@@H]([C@@H](C)CC)C(=O)N[C@@H](Cc1ccccc1)C(=O)NCC(=O)N[C@@H](CCCCN)C(=O)N2 [compound 44] (H-N[Nle]D[Nle]RCSASVECKQKCLKAIGSIFGKC[Nle]NKKCKCYPR-NH2; disulfide 6-27, 12-32, 16-34) | 436 | >11600 | 7073 | 
3 | CC[C@H](C)[C@@H]1NC(=O)[C@H](C)NC(=O)[C@H](CCCCN)NC(=O)[C@H](CC(C)C)NC(=O)[C@@H]2CSSC[C@@H](C(=O)N[C@@H](Cc3ccc(O)cc3)C(=O)N3CCC[C@H]3C(=O)N[C@@H](CCCNC(=N)N)C(N)=O)NC(=O)[C@H](CCCCN)NC(=O)[C@@H]3CSSC[C@H](NC(=O)[C@H](CCC(=O)O)NC(=O)[C@H](C(C)C)NC(=O)[C@H](CO)NC(=O)[C@H](C)NC(=O)[C@H](CO)NC(=O)[C@@H](NC(=O)[C@H](CCCNC(=N)N)NC(=O)[C@H](CCSC)NC(=O)[C@H](CC(=O)O)NC(=O)[C@H](CCSC)NC(=O)[C@@H](N)CC(N)=O)CSSC[C@H](NC(=O)[C@H](CCCCN)NC(=O)CNC(=O)[C@H](Cc4ccccc4)NC(=O)[C@H]([C@@H](C)CC)NC(=O)[C@H](CO)NC(=O)CNC1=O)C(=O)N[C@@H](CCSC)C(=O)N[C@@H](CC(N)=O)C(=O)N[C@@H](CCCCN)C(=O)N[C@@H](CCCCN)C(=O)N3)C(=O)N[C@@H](CCCCN)C(=O)N[C@@H](CC(C)C)C(=O)N[C@@H](CCCCN)C(=O)N2 [compound 36] (H-NMDMRCSASVECKLKCLKAIGSIFGKCMNKKCKCYPR-NH2; disulfide 6-27, 12-32, 16-34) |  |  |  | 0.75
4 | H-LRCSASVECKQKCLKAIGSIFGKC[Nle]NKKCKCYPR-OH (cysteine pairing not given here) [compound 103] |  |  |  | 2.1
5 | H-PIDERCSASVECKQKCLAAIGSIFGKC[Nle]NKKCKCYPR-OH (cysteine pairing not given here) [compound 94] |  |  |  | 0.87
6 | NMDMRCSASVECKQKCLKAIGSIFGKCMNKKCVCYPR [compound 42] |  |  |  | 2.8
